Experimental data taken from patent US20060069132A1, “Azolecarboxamide herbicides” (priority 2004, published 2006).

Tests used:
velvetleaf = experiment: Test A pre-/postemergence herbicide test; type: in vivo, Abutilon theophrasti; settings: for Velvetleaf plant response rating: Preemergence, visual rating, 0 to 100 scale (0 no effect, 100 complete control)
How it was run: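 Plants are held in greenhouse about ten days after treatment, then compared with untreated controls and scored 0 (no effect) to 100 (complete control). Preemergence dosing is a directed soil spray on sown sandy loam; postemergence dosing is spray to runoff at 2–10 cm height.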

Surinam grass = experiment: Test C pre-/postemergence herbicide test; type: in vivo, Urochloa decumbens; settings: preemergence
How it was run: (§1)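 Greenhouse-grown plants were evaluated visually 12 to 14 days after treatment, with 100 meaning complete control and 0 no effect. Application was preemergence, or postemergence at 2 to 18 cm.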

corn = experiment: Test C pre-/postemergence herbicide test; type: in vivo, Zea mays; settings: preemergence
How it was run: as §1

giant foxtail = experiment: Test C pre-/postemergence herbicide test; type: in vivo, Setaria faberi; settings: preemergence
How it was run: as §1

kochia = experiment: Test C pre-/postemergence herbicide test; type: in vivo, Kochia scoparia; settings: preemergence
How it was run: as §1

morningglory = experiment: Test C pre-/postemergence herbicide test; type: in vivo, Ipomoea coccinea; design: key to Plant response rating, Morningglory: 0 = no effect, 100 = complete control; settings: visual, 12 to 14 days, preemergence
How it was run: as §1

common ragweed = experiment: Test C pre-/postemergence herbicide test; type: in vivo, Ambrosia elatior; design: key to Plant response rating, Ragweed: 0 = no effect, 100 = complete control; settings: preemergence
How it was run: as §1

soybean = experiment: Test C pre-/postemergence herbicide test; type: in vivo, Glycine max; settings: preemergence
How it was run: as §1

rice = experiment: Test C flooded paddy test; type: in vivo, Oryza sativa
How it was run: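 Postemergence sprays applied to plants 2 to 18 cm tall (1- to 4-leaf stage); paddy species grown to 2-leaf stage under flooding. After 12 to 14 days in greenhouse, visual rating versus untreated controls on 0–100 scale (0 no effect, 100 complete control).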

[1] = test system: smallflower umbrella sedge; experiment: Test C flooded paddy test; type: in vivo, Cyperus difformis
barnyardgrass = experiment: Test C flooded paddy test; type: in vivo, Echinochloa crus-galli
How it was run: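 After a postemergence application at 1 to 4 leaves (plants 2–18 cm high), or at 2 leaves for barnyardgrass in flooded paddy, plants stayed in the greenhouse for 12 to 14 days. Damage was then judged visually relative to control plants, with 100 indicating complete control.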

[2] = 125 g ai/ha, scale 0 (no effect) to 100 (complete control), visual, 12 to 14 days
[3] = 250 g ai/ha, scale 0 to 100 (0 no effect, 100 complete control), visual, 12 to 14 days
[4] = 62 g ai/ha, scale 0 to 100 (0 no effect, 100 complete control)
[5] = 125 g ai/ha, scale of 0 to 100, 0 is no effect, 100 is complete control
[6] = 250 g ai/ha, scale of 0 to 100, 0 is no effect, 100 is complete control
[7] = 500 g ai/ha, visual rating after 12 to 14 days, scale 0 to 100 (0 no effect, 100 complete control)

## CCn1nc(C(C)(C)C)cc1C(=O)Nc1cccc(C(=O)NCC2CC2)c1 [Compound 62]
velvetleaf; Postemergence, 2000 g ai/ha, 0 to 100 scale, 0 no effect, 100 complete control
  Plant response rating, Velvetleaf: 20
velvetleaf; 500 g ai/ha
  Velvetleaf plant response rating: 70
velvetleaf; 2000 g ai/ha
  Velvetleaf plant response rating: 95
Surinam grass; 31 g ai/ha, scale 0 to 100
  Plant response rating, Surinam Grass: 0
Surinam grass; 62 g ai/ha
  Plant response rating (0 = no effect, 100 = complete control), Surinam Grass: 5
Surinam grass; [2]
  Plant response rating, Surinam Grass: 10
Surinam grass; [3]
  Plant response rating, Surinam Grass: 50
corn; 31 g ai/ha, scale 0 to 100
  Plant response rating, Corn: 0
corn; 62 g ai/ha
  Plant response rating (0 = no effect, 100 = complete control), Corn: 0
corn; [2]
  Plant response rating, Corn: 0
corn; [3]
  Plant response rating, Corn: 0
Giant foxtail; 31 g ai/ha, scale 0 to 100
  Plant response rating, Foxtail, Giant: 5
Giant foxtail; 62 g ai/ha
  Plant response rating (0 = no effect, 100 = complete control), Foxtail, Giant: 15
Giant foxtail; [2]
  Plant response rating, Foxtail, Giant: 65
Giant foxtail; [3]
  Plant response rating, Foxtail, Giant: 85
kochia; 31 g ai/ha, scale 0 to 100
  Plant response rating, Kochia: 100
kochia; 62 g ai/ha
  Plant response rating (0 = no effect, 100 = complete control), Kochia: 100
kochia; [2]
  Plant response rating, Kochia: 100
kochia; [3]
  Plant response rating, Kochia: 100
morningglory; 125 g ai/ha, scale 0 (no effect) to 100 (complete control)
  Plant response rating, Morningglory: 0
morningglory; 250 g ai/ha, scale 0 to 100 (0 no effect, 100 complete control)
  Plant response rating, Morningglory: 10
Common ragweed; 31 g ai/ha, scale 0 to 100
  Plant response rating, Ragweed: 0
Common ragweed; 62 g ai/ha
  Plant response rating (0 = no effect, 100 = complete control), Ragweed: 10
Common ragweed; [2]
  Plant response rating, Ragweed: 20
Common ragweed; [3]
  Plant response rating, Ragweed: 85
soybean; 31 g ai/ha, scale 0 to 100
  Plant response rating, Soybean: 0
soybean; 62 g ai/ha
  Plant response rating (0 = no effect, 100 = complete control), Soybean: 0
soybean; [2]
  Plant response rating, Soybean: 0
soybean; [3]
  Plant response rating, Soybean: 30
rice; [4]
  Rice plant response rating: 15
rice; [5]
  Rice plant response rating: 25
rice; [6]
  Rice plant response rating: 45
rice; [7]
  Plant response rating, Rice: 65
[1]; [4]
  Sedge, Umbrella plant response rating: 45
[1]; [5]
  Sedge, Umbrella plant response rating: 60
[1]; [6]
  Sedge, Umbrella plant response rating: 80
[1]; [7]
  Plant response rating, Sedge, Umbrella: 85
barnyardgrass; [4]
  Barnyardgrass plant response rating: 5
barnyardgrass; [5]
  Barnyardgrass plant response rating: 10
barnyardgrass; [6]
  Barnyardgrass plant response rating: 30
barnyardgrass; [7]
  Plant response rating, Barnyardgrass: 55
